Measurements taken from patent US10821115B2, “Compounds that inhibit Mcl-1 protein” (priority 2017, dated 2020).
Like-named read-outs stand apart in the source and are kept apart here. Blank lines part the entries; values can stand above or below the compound they belong to.

System: human multiple myeloma cell line, OPM-2
Assay: Cell viability assay (OPM-2 10 FBS), CellTiter-Glo
Type: cell-based
Summary of the method: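 Steps: plate cells at 3000/well in 10% FBS growth medium, add serially diluted compound, incubate 16 h at 37 °C with 5% CO2, add detection reagent and read luminescence after 25 min. A 4-parameter logistic model gives IC50.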

[1] = Homo sapiens, OPM-2, 16 h, read-out: OPM-2 10% FBS IC50 IP, OPM-2 cells, 10% FBS, 16 h, CellTiter-Glo
[2] = read-out: OPM-2 10% FBS IC50 IP, OPM-2 cells, 10% FBS, 16 h, CellTiter-Glo
[3] = read-out: OPM-2 10% FBS IC50 IP, OPM-2 cells, 10% FBS, 16 h incubation
[4] = Homo sapiens, OPM-2, 16 h, read-out: OPM-2 10% FBS IC50 IP, OPM-2 cells, 10% FBS, 16 h incubation

Compound: COC(=O)C(C)(C)NC(=O)C[C@]1(OC)/C=C/C[C@H](C)[C@@H](C)S(=O)(=O)NC(=O)c2ccc3c(c2)N(C[C@@H]2CC[C@H]21)C[C@@]1(CCCc2cc(Cl)ccc21)CO3 [Example 100544, methyl N-(((1S,3′R,6′R,7′S,8′E,11′S,12′R)-6-chloro-7′-methoxy-11′,12′-dimethyl-13′,13′-dioxido-15′-oxo-3,4-dihydro-2H-spiro[naphthalene-1,22′-[20]oxa[13]thia[1,14]diazatetracyclo [14.7.2.0~3,6~.0~19,24~]pentacosa[8,16,18,24]tetraen]-7′-yl)acetyl)-2-methylalaninate]
- IC50 [1]: 306 nM

- IC50 [2]: 138 nM
Compound: CO[C@@]1(C#CCCc2ccncn2)/C=C/C[C@H](C)[C@@H](C)S(=O)(=O)NC(=O)c2ccc3c(c2)N(C[C@@H]2CC[C@H]21)C[C@@]1(CCCc2cc(Cl)ccc21)CO3 [Example 100519, (1S,3′R,6′R,7′S,8′E,11′S,12′R)-6-chloro-7′-methoxy-11′,12′-dimethyl-7′-(4-(4-pyrimidinyl)-1-butyn-1-yl)-3,4-dihydro-2H,15′H-spiro[naphthalene-1,22′-[20]oxa[13]thia[1,14]diazatetracyclo [14.7.2.0~3,6~.0~19,24~]pentacosa[8,16,18,24]tetraen]-15′-one 13′,13′-dioxide]

Compound: C[C@@H]1[C@@H](C)C/C=C/[C@](O)(CN2CCN3CCOC[C@@H]3C2)[C@@H]2CC[C@H]2CN2C[C@@]3(CCCc4cc(Cl)ccc43)COc3ccc(cc32)C(=O)NS1(=O)=O [Example 213, (1 S,3′R,6′R,7′R,8′E,11′S,12′R)-6-chloro-7′-((9aS)-hexahydropyrazino[2,1-c][1,4]oxazin-8(1H)-ylmethyl)-7′-hydroxy-11′,12′-dimethyl-3,4-dihydro-2H, 15′H-spiro[naphthalene-1,22′-[20]oxa[13]thia[1,14]diazatetracyclo[14.7.2.0-3,6˜.0˜19,24˜]pentacosa[8,16,18,24]tetraen]-15′-one 13′,13′-dioxide]
- IC50 [3]: 400 nM

Compound: CO[C@]1(CN2CCN3CCN(C(C)=O)C[C@@H]3C2)/C=C/C[C@H](C)[C@@H](C)S(=O)(=O)NC(=O)c2ccc3c(c2)N(C[C@@H]2CC[C@H]21)C[C@@]1(CCCc2cc(Cl)ccc21)CO3 [Example 218]
- IC50 [3]: 92 nM

Compound: CO[C@@]1(CN2CCN3CCN(C(C)=O)C[C@@H]3C2)/C=C/C[C@H](C)[C@@H](C)S(=O)(=O)NC(=O)c2ccc3c(c2)N(C[C@@H]2CC[C@H]21)C[C@@]1(CCCc2cc(Cl)ccc21)CO3 [Example 214]
- IC50 [3]: 84 nM

Compound: CC[C@@H]1CC/C=C/[C@@](CN2CCN3CCCC[C@@H]3C2)(OC)[C@@H]2CC[C@H]2CN2C[C@@]3(CCCc4cc(Cl)ccc43)COc3ccc(cc32)C(=O)N(C)S1(=O)=O [Example 33, (1 S,3′R,6′R,7′R,8′E,12′R)-6-chloro-12′-ethyl-7′-methoxy-14′-methyl-7′-((9aR)-octahydro-2H-pyrido[1,2-a]pyrazin-2-ylmethyl)-3,4-dihydro-2H,15′H-spiro[naphthalene-1,22′-[20]oxa[13]thia[1,14]diazatetracyclo[14.7.2.0-3,6˜.0˜19,24˜]pentacosa[8,16,18,24]tetraen]-15′-one 13′,13′-dioxide]
- IC50 [4]: 5570 nM

- IC50 [4]: 518 nM
Compound: CO[C@]1(CNCCN2CCOCC2)/C=C/C[C@H](C)[C@@H](C)S(=O)(=O)NC(=O)c2ccc3c(c2)N(C[C@@H]2CC[C@H]21)C[C@@]1(CCCc2cc(Cl)ccc21)CO3 [Example 36, (1S,3′R,6′R,7′R,8′E,11′S,12′R)-6-chloro-7′-methoxy-11′,12′-dimethyl-7′-(((2-(4-morpholinyl)ethyl)amino)methyl)-3,4-dihydro-2H,15′H-spiro[naphthalene-1,22′-[20]oxa[13]thia[1,14]diazatetracyclo [14.7.2.0~3,6~.0~19,24~]pentacosa[8,16,18,24]tetraen]-15′-one 13′,13′-dioxide]

Compound: COC(=O)CNC(=O)C[C@]1(OC)/C=C/C[C@H](C)[C@@H](C)S(=O)(=O)NC(=O)c2ccc3c(c2)N(C[C@@H]2CC[C@H]21)C[C@@]1(CCCc2cc(Cl)ccc21)CO3 [Example 100550, methyl N-(((1S,3′R,6′R,7′S,8′E,11′S,12′R)-6-chloro-7′-methoxy-11′,12′-dimethyl-13′,13′-dioxido-15′-oxo-3,4-dihydro-2H-spiro[naphthalene-1,22′-[20]oxa[13]thia[1,14]diazatetracyclo [14.7.2.0~3,6~.0~19,24~]pentacosa[8,16,18,24]tetraen]-7′-yl)acetyl)glycinate]
- IC50 [1]: 6860 nM

Compound: CO[C@@]1(CC(=O)N(C)C)/C=C/C[C@H](C)[C@@H](C)S(=O)(=O)NC(=O)c2ccc3c(c2)N(C[C@@H]2CC[C@H]21)C[C@@]1(CCCc2cc(Cl)ccc21)CO3 [Example 100135, 2-((1S,3′R,6′R,7′S,8′E,11′S,12′R)-6-chloro-7′-methoxy-11′,12′-dimethyl-13′,13′-dioxido-15′-oxo-3,4-dihydro-2H-spiro[naphthalene-1,22′-[20]oxa[13]thia[1,14]diazatetracyclo [14.7.2.0~3,6~.0~19,24~]pentacosa[8,16,18,24]tetraen]-7′-yl)-N,N-dimethylacetamide]
- IC50 [2]: 161 nM

- IC50 [4]: 379 nM
Compound: CO[C@@]1(CNCCN2CCOCC2)/C=C/C[C@H](C)[C@@H](C)S(=O)(=O)NC(=O)c2ccc3c(c2)N(C[C@@H]2CC[C@H]21)C[C@@]1(CCCc2cc(Cl)ccc21)CO3 [Example 34, (1 S,3′R,6′R,7′S,8′E,11′S,12′R)-6-chloro-7′-methoxy-11′,12′-dimethyl-7′-(((2-(4-morpholinyl)ethyl)amino)methyl)-3,4-dihydro-2H, 15′H-spiro[naphthalene-1,22′-[20]oxa[13]thia[1,14]diazatetracyclo[14.7.2.0˜3,6˜.0˜19,24˜]pentacosa[8,16,18,24]tetraen]-15′-one 13′,13′-dioxide]

Compound: CO[C@]1(CN2CCN(C3(C)COC3)CC2)/C=C/C[C@H](C)[C@@H](C)S(=O)(=O)NC(=O)c2ccc3c(c2)N(C[C@@H]2CC[C@H]21)C[C@@]1(CCCc2cc(Cl)ccc21)CO3 [Example 319, (1S,3′R,6′R,7′R,8′E,11′S,12′R)-6-chloro-7′-methoxy-11′,12′-dimethyl-7′-((4-(3-methyl-3-oxetanyl)-1-piperazinyl)methyl)-3,4-dihydro-2H,15′H-spiro[naphthalene-1,22′-[20]oxa[13]thia[1,14]diazatetracyclo [14.7.2.0~3,6~.0~19,24~]pentacosa[8,16,18,24]tetraen]-15′-one 13′,13′-dioxide]
- IC50 [4]: 87 nM

Compound: CO[C@@]1(CC(=O)C2CC2)/C=C/C[C@H](C)[C@@H](C)S(=O)(=O)NC(=O)c2ccc3c(c2)N(C[C@@H]2CC[C@H]21)C[C@@]1(CCCc2cc(Cl)ccc21)CO3 [Example 100443, (1S,3′R,6′R,7′S,8′E,11′S,12′R)-6-chloro-7′-(2-cyclopropyl-2-oxoethyl)-7′-methoxy-11′,12′-dimethyl-3,4-dihydro-2H,15′H-spiro[naphthalene-1,22′-[20]oxa[13]thia[1,14]diazatetracyclo [14.7.2.0~3,6~.0~19,24~]pentacosa[8,16,18,24]tetraen]-15′-one 13′,13′-dioxide]
- IC50 [1]: 156 nM

Compound: COC[C@@]1(OC)/C=C/C[C@H](C)[C@@H](C)S(=O)(=O)NC(=O)c2ccc3c(c2)N(C[C@@H]2CC[C@H]21)C[C@@]1(CCCc2cc(Cl)ccc21)CO3 [Example 100464, (1S,3′R,6′R,7′R,8′E,11′S,12′R)-6-chloro-7′-methoxy-7′-(methoxymethyl)-11′,12′-dimethyl-3,4-dihydro-2H,15′H-spiro[naphthalene-1,22′-[20]oxa[13]thia[1,14]diazatetracyclo [14.7.2.0~3,6~.0~19,24~]pentacosa[8,16,18,24]tetraen]-15′-one 13′,13′-dioxide]
- IC50 [1]: 1530 nM

Compound: C[C@@H]1[C@@H](C)CCC[C@@](O)(CN2CCN3CCOC[C@@H]3C2)[C@@H]2CC[C@H]2CN2C[C@@]3(CCCc4cc(Cl)ccc43)COc3ccc(cc32)C(=O)NS1(=O)=O [Example 7, (1S,3′R,6′R,7′S,11′S,12′R)-6-CHLORO-7′-((9AS)-HEXAHYDROPYRAZINO [2,1-C][1,4]OXAZIN-8(1H)-YLMETHYL)-7′-HYDROXY-11′,12′-DIMETHYL-3,4-DIHYDRO-2H, 15′H-SPIRO[NAPHTHALENE-1,22′-[20]OXA[13]THIA[1,14]DIAZATETRACYCLO[14.7.2.0-3,6˜.0˜19,24˜]PENT ACOSA[16,18,24]TRIEN]-15′-ONE 13′,13′-DIOXIDE]
- IC50 [3]: 25 nM

Compound: C[C@@H]1[C@@H](C)C/C=C/[C@@](O)(C#C[Si](C)(C)C)[C@@H]2CC[C@H]2CN2C[C@@]3(CCCc4cc(Cl)ccc43)COc3ccc(cc32)C(=O)NS1(=O)=O [Example 100243, (1S,3′R,6′R,7′S,8′E,11′S,12′R)-6-chloro-7′-hydroxy-11′,12′-dimethyl-7′-((trimethylsilyl)ethynyl)-3,4-dihydro-2H,15′H-spiro[naphthalene-1,22′-[20]oxa[13]thia[1,14]diazatetracyclo [14.7.2.0~3,6~.0~19,24~]pentacosa[8,16,18,24]tetraen]-15′-one 13′,13′-dioxide]
- IC50 [2]: 8670 nM

- IC50 [2]: 1230 nM
Compound: CO[C@@]1(C#CCCN2CCS(=O)(=O)CC2)/C=C/C[C@H](C)[C@@H](C)S(=O)(=O)NC(=O)c2ccc3c(c2)N(C[C@@H]2CC[C@H]21)C[C@@]1(CCCc2cc(Cl)ccc21)CO3 [Example 100456, (1S,3′R,6′R,7′S,8′E,11′S,12′R)-6-chloro-7′-(4-(1,1-dioxido-4-thiomorpholinyl)-1-butyn-1-yl)-7′-methoxy-11′,12′-dimethyl-3,4-dihydro-2H,15′H-spiro[naphthalene-1,22′-[20]oxa[13]thia[1,14]diazatetracyclo [14.7.2.0~3,6~.0~19,24~]pentacosa[8,16,18,24]tetraen]-15′-one 13′,13′-dioxide]
